Patent US7138145B2, “Method and apparatus for ozination of grain” (priority 2001, dated 2006)

How the values were obtained:
insects [1] = settings: fumigation of the grain; cited from earlier work
[2] = test system: mold, fungus, and some bacteria; settings: fumigation of the grain; cited from earlier work
insects [3] = assay: ozonation of grain stored in an elevator: killing of insects
Excerpt: (§1) It is an object of some embodiments of the present invention to provide a method for treating grain for fungus, mold, bacteria, dust, and insects by exposing the grain to a high concentration of ozone for an extended period of time. The present invention utilizes a powerful fan or fans placed at the bottom of the grain storage facility such as, for example, a silo or grain elevator to draw down through the grain a flow of gas containing ozone between 50 and 100 ppm. Ozone generators placed in the head space at the top of the elevator produce ozone in a concentration in excess of 100 ppm. Monitors placed in this head space assure that the ozone concentration remains at these levels. If the ozone generators are not capable of maintaining the concentration at 100 ppm in the head space, then the draw is reduced by slowing the fan speed. A duct takes drawn gases from the bottom of the elevator and re-circulates those gases into the head space to reduce the amount of ozone needed to be generated during a second pass. To assure that the gases come in contact with all of the grain in the elevator, a technique labeled “pulling the core” is utilized wherein a quantity of grain is removed from the bottom of the elevator at its center to remove a column of grain from the core of the column of grain thereby evenly distribute the grain within the elevator. The material which is pulled from the core is then sent back to the top of the column and evenly distributed across the top.
(§2) The following discussion is directed towards grain stored within a vertical elevator 10. […] In one embodiment, a quantity of ozone is injected into a grain bin, vessel, or truck prior to the grain being loaded into said container in order to treat the grain for mold, bacteria, fungi, and biological load as the grain is loaded. […] In this embodiment, the loading bin is partially enclosed and has injected therein a sufficient quantity of ozone to create a concentration of approximately 100 ppm within the loading bin and the enclosed auger. […]

[4] = test system: mold, bacteria, and fungus; assay: ozonation of grain stored in an elevator: treatment of mold, bacteria and fungus
Excerpt: as §1, §2

[5] = flow of gas containing ozone between 50 and 100 ppm
[6] = ozone concentration maintained for three days
[7] = ozone drawn through grain, over 100 ppm in head space, 50 ppm at bottom of column

| Structure (SMILES) | effect of fumigation on insects (insects [1]) | effect of fumigation on mold, fungus and some bacteria [2] | time within which some insects begin to die (insects [3]; [5]) | destruction of insects (insects [3]; [6]) | exposure after which some insects are killed (insects [3]; [7]) [h] | time within which mold and bacteria begin to die [4, 5] | destruction of mold, bacteria and fungus [4, 6] | time after which smell from mold and fungus disappears [4, 7] [h] |
| --- | --- | --- | --- | --- | --- | --- | --- | --- |
| CBr [methyl bromide] | effective at killing insects | not been effective |  |  |  |  |  |  |
| O=[O+][O-] [ozone] |  |  | twenty-four | almost all insect, mold, bacteria, and fungus will be destroyed | 12 | twenty-four | almost all insect, mold, bacteria, and fungus will be destroyed | 24 |
| P [phosphine] | effective at killing insects | not been effective |  |  |  |  |  |  |
